Values quoted from earlier work, collected in paper PMC3437650 (Bioorganic & medicinal chemistry letters, 2008).

Tested on: BBB choline transporter
Conditions: ref 11b

N,N’-(1,12-dodecandiyl)-bis-pyridinium dibromide [bPiDDB]
share of permeation into brain that uses the BBB choline transporter: ~ 90%
